Assay results taken from ChEMBL document CHEMBL1201862, “PubChem BioAssay data set” (2004).
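Cultured in 96-well plates, cells were exposed to test compound for 48 hours across five concentrations. The concentration for 50% growth inhibition is given as GI50.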 The source made the active and inactive calls. Rule as the data show it: active = GI50 up to about 1.1 µM and inactive = higher.

Experiments:
Experiment in all cases: NCI-60 cell line screen, 48 h
TK-10 = test system: TK-10
MDA-N = test system: MDA-N
HT-29 = test system: HT-29
786-0 = test system: 786-0
OVCAR-4 = test system: OVCAR-4
NCI/ADR-RES = test system: NCI/ADR-RES
CCRF-CEM = test system: CCRF-CEM
DU-145 = test system: DU-145
OVCAR-3 = test system: OVCAR-3
NCI-H522 = test system: NCI-H522
SF-268 = test system: SF-268
U-251 = test system: U-251
SF-539 = test system: SF-539
EKVX = test system: EKVX
A549 = test system: A549
NCI-H226 = test system: NCI-H226
HOP-62 = test system: HOP-62
UACC-62 = test system: UACC-62
SK-MEL-5 = test system: SK-MEL-5
RPMI-8226 = test system: RPMI-8226
LOX IMVI = test system: LOX IMVI
OVCAR-8 = test system: OVCAR-8
ACHN = test system: ACHN
HCT-116 = test system: HCT-116
MOLT-4 = test system: MOLT-4
NCI-H23 = test system: NCI-H23
MDA-MB-231 = test system: MDA-MB-231
MDA-MB-435 = test system: MDA-MB-435
UO-31 = test system: UO-31
RXF 393 = test system: RXF 393
NCI-H460 = test system: NCI-H460
SK-OV-3 = test system: SK-OV-3
SN12C = test system: SN12C
T47D = test system: T47D
Hs-578T = test system: Hs-578T
OVCAR-5 = test system: OVCAR-5
HOP-92 = test system: HOP-92
A498 = test system: A498
SNB-19 = test system: SNB-19
CAKI-1 = test system: CAKI-1
HL-60 = test system: HL-60
SW-620 = test system: SW-620
HCC 2998 = test system: HCC 2998
Malme-3M = test system: Malme-3M
SNB-75 = test system: SNB-75
K562 = test system: K562
HCT-15 = test system: HCT-15
PC-3 = test system: PC-3
COLO 205 = test system: COLO 205
KM12 = test system: KM12
SF-295 = test system: SF-295
MCF7 = test system: MCF7
SR = test system: SR
IGROV-1 = test system: IGROV-1
SK-MEL-2 = test system: SK-MEL-2
M14 = test system: M14
UACC-257 = test system: UACC-257
SK-MEL-28 = test system: SK-MEL-28

COc1cc([C@@H]2c3cc4c(cc3[C@@H](Nc3ccc([N+](=O)[O-])cc3C(=O)c3ccccc3)[C@H]3COC(=O)[C@H]23)OCO4)cc(OC)c1OC
GI50 (TK-10): > 100 µM (inactive) | GI50 (MDA-N): 0.0687 µM (active) | GI50 (HT-29): 0.32 µM (active) | GI50 (786-0): 0.425 µM (active) | GI50 (OVCAR-4): > 41.8 µM (inactive) | GI50 (NCI/ADR-RES): 0.587 µM (active) | GI50 (CCRF-CEM): 0.391 µM (active) | GI50 (DU-145): 0.434 µM (active) | GI50 (OVCAR-3): 0.434 µM (active) | GI50 (NCI-H522): 0.16 µM (active) | GI50 (SF-268): 0.472 µM (active) | GI50 (U-251): 0.354 µM (active) | GI50 (SF-539): 0.201 µM (active) | GI50 (EKVX): > 100 µM (inactive) | GI50 (A549): 0.446 µM (active) | GI50 (NCI-H226): 0.726 µM (active) | GI50 (HOP-62): 0.282 µM (active) | GI50 (UACC-62): 0.164 µM (active) | GI50 (SK-MEL-5): 0.2 µM (active) | GI50 (RPMI-8226): 0.394 µM (active) | GI50 (LOX IMVI): 0.281 µM (active) | GI50 (OVCAR-8): 0.515 µM (active) | GI50 (ACHN): 0.304 µM (active) | GI50 (HCT-116): 0.23 µM (active) | GI50 (MOLT-4): 0.306 µM (active) | GI50 (NCI-H23): 0.428 µM (active) | GI50 (MDA-MB-231): 0.548 µM (active) | GI50 (MDA-MB-435): 0.071 µM (active) | GI50 (UO-31): 0.23 µM (active) | GI50 (RXF 393): 0.573 µM (active) | GI50 (NCI-H460): 0.258 µM (active) | GI50 (SK-OV-3): 0.46 µM (active) | GI50 (SN12C): 0.416 µM (active) | GI50 (T47D): > 100 µM (inactive) | GI50 (Hs-578T): 5.05 µM (inactive) | GI50 (OVCAR-5): 0.555 µM (active) | GI50 (HOP-92): 8.05 µM (inactive) | GI50 (A498): 0.415 µM (active) | GI50 (SNB-19): 0.603 µM (active) | GI50 (CAKI-1): 0.381 µM (active) | GI50 (HL-60): 0.211 µM (active) | GI50 (SW-620): 0.233 µM (active) | GI50 (HCC 2998): 0.436 µM (active) | GI50 (Malme-3M): 0.481 µM (active) | GI50 (SNB-75): > 100 µM (inactive) | GI50 (K562): 0.156 µM (active) | GI50 (HCT-15): 0.269 µM | GI50 (PC-3): 0.344 µM (active) | GI50 (COLO 205): 0.293 µM (active) | GI50 (KM12): 0.266 µM (active) | GI50 (SF-295): 0.196 µM (active) | GI50 (MCF7): 0.26 µM (active) | GI50 (SR): 0.177 µM (active) | GI50 (IGROV-1): 0.5 µM (active) | GI50 (SK-MEL-2): 3.28 µM (inactive) | GI50 (M14): 0.281 µM (active)

CC(C)(C)c1cc([N+](=O)[O-])cc([N+](=O)[O-])c1O [DINOTERB]
GI50 (TK-10): > 10 µM (inactive) | GI50 (MDA-N): > 10 µM (inactive) | GI50 (HT-29): > 10 µM (inactive) | GI50 (786-0): > 10 µM (inactive) | GI50 (OVCAR-4): > 10 µM (inactive) | GI50 (NCI/ADR-RES): > 10 µM (inactive) | GI50 (CCRF-CEM): > 10 µM (inactive) | GI50 (DU-145): 9.59 µM (inactive) | GI50 (OVCAR-3): > 10 µM (inactive) | GI50 (NCI-H522): > 10 µM (inactive) | GI50 (SF-268): > 10 µM (inactive) | GI50 (U-251): > 10 µM (inactive) | GI50 (SF-539): > 10 µM (inactive) | GI50 (EKVX): 9.86 µM (inactive) | GI50 (A549): 7.64 µM (inactive) | GI50 (NCI-H226): > 10 µM (inactive) | GI50 (HOP-62): > 10 µM (inactive) | GI50 (UACC-62): > 10 µM (inactive) | GI50 (SK-MEL-5): 6.47 µM (inactive) | GI50 (RPMI-8226): 4.12 µM (inactive) | GI50 (LOX IMVI): > 10 µM (inactive) | GI50 (OVCAR-8): > 10 µM (inactive) | GI50 (ACHN): > 10 µM (inactive) | GI50 (HCT-116): > 10 µM (inactive) | GI50 (MOLT-4): > 10 µM (inactive) | GI50 (NCI-H23): > 10 µM (inactive) | GI50 (MDA-MB-231): > 10 µM (inactive) | GI50 (MDA-MB-435): > 10 µM (inactive) | GI50 (UO-31): > 10 µM (inactive) | GI50 (UACC-257): 8.57 µM (inactive) | GI50 (RXF 393): > 10 µM (inactive) | GI50 (NCI-H460): 7.98 µM (inactive) | GI50 (SK-OV-3): > 10 µM (inactive) | GI50 (SN12C): > 10 µM (inactive) | GI50 (T47D): > 10 µM (inactive) | GI50 (Hs-578T): 8.71 µM (inactive) | GI50 (OVCAR-5): > 10 µM (inactive) | GI50 (SK-MEL-28): > 10 µM (inactive) | GI50 (HOP-92): 2.77 µM (inactive) | GI50 (SNB-19): > 10 µM (inactive) | GI50 (CAKI-1): 5.6 µM (inactive) | GI50 (HL-60): > 10 µM (inactive) | GI50 (SW-620): > 10 µM (inactive) | GI50 (HCC 2998): > 10 µM (inactive) | GI50 (SNB-75): > 10 µM (inactive) | GI50 (K562): 9.29 µM (inactive) | GI50 (HCT-15): > 10 µM | GI50 (PC-3): 5.52 µM (inactive) | GI50 (COLO 205): > 10 µM (inactive) | GI50 (KM12): > 10 µM (inactive) | GI50 (SF-295): > 10 µM (inactive) | GI50 (MCF7): > 10 µM (inactive) | GI50 (SR): > 10 µM (inactive) | GI50 (IGROV-1): > 10 µM (inactive) | GI50 (SK-MEL-2): > 10 µM (inactive) | GI50 (M14): > 10 µM (inactive)
